Results: US11299489B1, “Thiazole compounds as protein kinase inhibitors” (NATIONAL HEALTH RESEARCH INSTITUTES, priority 2020, dated 2022)
Counter-ions that a name gives are not always drawn.

Legend:
[1] = target: T1, GST-FLT3-KD WT (FLT3 kinase catalytic domain) (Homo sapiens, UniProt P36888); assay: FLT3 WT Kinase-Glo assay; assay type: biochemical; settings: 1 μM ATP, 30° C., 4 h; read-out: IC50, inhibiting FLT3 activity
T1 construct: containing the FLT3 kinase catalytic domain (residues Y567-5993); GST; made in house; host or cells: Sf9 insect cells (baculovirus, pBac-PAK8-GST-FLT3-KD plasmid)
T1 sequence (P36888 567-993 limits assumed): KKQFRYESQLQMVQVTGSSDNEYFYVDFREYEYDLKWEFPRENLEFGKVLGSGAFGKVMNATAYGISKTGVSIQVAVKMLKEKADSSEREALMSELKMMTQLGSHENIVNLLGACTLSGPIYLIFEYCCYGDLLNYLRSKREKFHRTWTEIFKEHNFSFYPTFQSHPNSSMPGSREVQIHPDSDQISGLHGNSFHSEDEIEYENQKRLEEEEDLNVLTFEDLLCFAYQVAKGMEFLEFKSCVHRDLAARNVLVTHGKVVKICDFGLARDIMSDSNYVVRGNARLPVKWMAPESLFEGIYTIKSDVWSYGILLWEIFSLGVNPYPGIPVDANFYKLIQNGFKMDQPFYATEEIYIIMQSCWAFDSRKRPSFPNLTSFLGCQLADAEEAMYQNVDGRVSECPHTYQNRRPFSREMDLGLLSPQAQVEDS
Method: A study was carried out as follows to test compound 1 HCl salt prepared according to EXAMPLE 1 in inhibiting FLT3 activity.
GST-FLT3-KD^WT containing the FLT3 kinase catalytic domain (residues Y567-5993) was expressed in Sf9 insect cells transfected the baculovirus containing pBac-PAK8-GST-FLT3-KD plasmid. An FLT3^WT Kinase-Glo assay was carried out in 96-well plates at 30° C. for 4 h to test compound in a final volume of 50 μL including the following components: 75 ng GST-FLT3-KD^WT proteins, 25 mM HEPES, pH 7.4, 4 mM MnCl2, 10 mM MgCl2, 2 mM DTT, 0.02% Triton X-100, 0.1 mg/mL bovine serum albumin, 25 μM Her2 peptide substrate, 0.5 mM Na3VO4, and 1 μM ATP. Following incubation, 50 μL Kinase-Glo Plus Reagent (Promega, Madison, Wis., USA) was added to each well and the mixture was incubated at 25° C. for 20 min. A 70-μL aliquot of each reaction mixture was transferred to a black microtiter plate and the luminescence was measured on Wallac Vector 1420 multilabel counter (PerkinElmer, Shelton, Conn., USA).

[2] = target: T2, human c-KIT (residues T544-V976) (Homo sapiens, UniProt P10721); assay: c-Kit ADP Kinase-Glo assay; assay type: biochemical; settings: 20 μM ATP, 30° C., 150 mins; read-out: IC50, inhibiting c-Kit activity
T2 construct: human c-KIT (residues T544-V976); His (N); made in house; host or cells: baculovirus-insect cell expression system (printed '519', evidently Sf9)
Method: A study was carried out as follows to test compound 1 HCl salt prepared according to EXAMPLE 1 in inhibiting c-Kit activity.
The N-terminal His-tagged human c-KIT (residues T544-V976) recombinant proteins, expressed in 519 baculovirus-insect cell expression systems, were purified for c-KIT ADP Kinase-Glo assay. A c-Kit-ADP Kinase-Glo assay was carried out in 96-well plates at 30° C. for 150 mins with a final volume of 10 μL, including 40 mM Tris pH 7.4, 20 mM MgCl2, 2 mM MnCl2, 2 mM DTT, 0.01% BSA, 20 μM ATP, 20 μM poly(Glu,Tyr) 4:1 peptide, 0.1 mM Na3VO4, 250 ng of recombinant c-Kit proteins, and a tested compound at the indicated concentration. The reactions were stopped by the addition of 5 μL ADP-Glo™ Reagent (Promega, Madison, Wis., USA) at 25° C. with 40 min incubation, followed by 10 μL of kinase detection reagent for a further 30 min. Finally, a […] aliquot of each reaction mixture was transferred to a black microtiter plate and the luminescence was measured on Wallac Vector 1420 multilabel counter (Perkin-Elmer, Shelton, Conn., USA).

MOLM-13 cells = assay: MTS cell viability assay, MOLM-13; assay type: cell-based; settings: Homo sapiens, MOLM-13, 72 h
Description: (§1) MV4:11, BaF3 and HEK293T cell lines were obtained from American Type Culture Collection (ATCC, Manassas, Va., USA). MOLM-13 cell line was purchased from the Deutsche Sammlung von Microorganismen and Zellkulturen GmbH (DSMZ, Braunschweig, Germany). The GIST-T1 cell line was obtained from COSMO BIO CO., LTD (Tokyo, Japan). The GIST-T1, MOLM-13, MV4:11, BaF3, BaF3/FLT3-D835Y, BaF3/FLT3-ITD-F691L and BaF3/FLT3-ITD-D835Y cells were maintained in RPMI 1640 medium supplemented with 10% fetal bovine serum (FBS), 10 U/mL penicillin, and 100 μg/mL streptomycin at 37° C. and 5% CO2. The kasumin-1 cells were cultured in RPMI 1640 medium supplemented with 20% fetal bovine serum (FBS), 1 mM Hepes, 1 mM sodium pyruvate, 10 U/ml penicillin, and 100 μg/ml streptomycin. The HEK293T and FLT3-transfected HEK293T cells were cultured in DMEM (Invitrogen, USA) medium with 10% FBS fetal bovine serum. […]
(§2) Cell viability assay was performed by seeding 1×10^4 cells (MOLM-13, MV4:11, BaF3, BaF3/FLT3-D835Y, BaF3/FLT3-ITD-D835Y and BaF3/FLT3-ITD-F691L) per well in a 96-well culture plate. […] The viable cells were quantitated using the CellTiter 96 AQueous MTS method (Promega, Madison, Wis., USA) according to the manufacturer's recommended protocol. The results were determined by measuring the absorbance at 490 nm using a plate reader (Victor2; PerkinElmer, Shelton, Conn., USA). […]

MV4:11 cells = assay: MTS cell viability assay, MV4:11; assay type: cell-based; settings: Homo sapiens, MV4-11, 72 h
Description: as §1, §2

GIST-T1 cells = assay: MTS cell viability assay, GIST-T1; assay type: cell-based; settings: Homo sapiens, GISTT1, 72 h
Description: as §1, §2

GIST430 cells = assay: Cell proliferation assay (methylene blue), GIST430; assay type: cell-based; settings: Homo sapiens, GIST430, 120 h
Method: (§3) GIST882, GIST48 and GIST430 cells were all cultured in incubators maintained at 37° C. and 5% CO2. GIST882 was cultured in RPMI-1640 supplemented with 20% fetal bovine serum (FBS). GIST48 was cultured with F10 supplemented with 20% FBS, 0.5% Mito, serum extender (BD Bioscience, 355006) and 1% pituitary extract bovine (BD Bioscience 354123). GIST430 was cultured in IMDM supplemented with 20% FBS. GIST882, GIST430 and GIST48 cells were provided by Dr. Jonathan A. Fletcher (Harvard Medical School, US).
(§4) GIST cells (4×10^4) were treated with different dosage of compounds. The treated GIST882 cells were incubated for 144 h and GIST48 and GIST430 cells were incubated for 120 h at 37° C. in 5% CO2. Cell proliferation was determined by incubating the cells with methylene blue (Clontech, CA, US) for 1 hour. The absorbance was measured at 450 nm using SpectraMax M5 microplate reader (Molecular Devices, US).

GIST48 cells = assay: Cell proliferation assay (methylene blue), GIST48; assay type: cell-based; settings: Homo sapiens, GIST48, 120 h
Method: as §3, §4

GIST882 cells = assay: Cell proliferation assay (methylene blue), GIST882; assay type: cell-based; settings: Homo sapiens, GIST882, 144 h
Method: as §3, §4

[3] = system: BaF3/FLT3-ITD-F691L cells; assay: MTS cell viability assay, BaF3/FLT3-ITD-F691L; assay type: cell-based, murine; settings: Mus musculus, 72 h
Description: as §1, §2

[4] = system: BaF3/FLT3-ITD-D835Y cells; assay: MTS cell viability assay, BaF3/FLT3-ITD-D835Y; assay type: cell-based, murine; settings: Mus musculus, 72 h
Description: as §1, §2

BaF3/FLT3-D835Y cells = assay: MTS cell viability assay, BaF3/FLT3-D835Y; assay type: cell-based, murine; settings: Mus musculus, 72 h
Description: as §1, §2

[5] = system: BaF3 cells (IL3 dependent pro-B cell line); assay: MTS cell viability assay, BaF3 + IL3; assay type: cell-based, murine; settings: Mus musculus; BaF3 + IL3, 72 h
Description: as §1, §2

Kasumi-1 xenografts = assay: In vivo efficacy study on Kasumi-1 xenografts; set-up: species or system SCID male mice; settings: days 1-5 and 8-12; for Day 18 Tumor Size: control 880

T2 sequence (P10721 544-976): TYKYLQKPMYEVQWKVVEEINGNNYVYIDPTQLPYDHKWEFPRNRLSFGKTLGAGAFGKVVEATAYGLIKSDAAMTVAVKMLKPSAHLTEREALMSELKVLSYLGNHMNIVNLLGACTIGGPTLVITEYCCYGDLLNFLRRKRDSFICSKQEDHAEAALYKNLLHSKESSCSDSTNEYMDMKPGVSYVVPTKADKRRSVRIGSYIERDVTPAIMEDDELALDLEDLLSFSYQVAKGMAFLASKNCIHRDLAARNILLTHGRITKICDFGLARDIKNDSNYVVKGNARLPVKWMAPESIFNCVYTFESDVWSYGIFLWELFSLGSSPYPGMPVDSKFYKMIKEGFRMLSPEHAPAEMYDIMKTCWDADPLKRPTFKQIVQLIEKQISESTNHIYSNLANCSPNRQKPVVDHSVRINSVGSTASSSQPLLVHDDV

`Cc1nc(Nc2ncc(-c3ccncc3)s2)cc(N2CCNCC2)n1` [Compound 1 HCl salt, 2-Methyl-6-(piperazin-1-yl)-N-[5-(pyridine-4-yl)-1,3-thiazol-2-yl]pyrimidin-4-amine dihydrochloride] was tested, and the IC50 [1] was < 100 nM, the IC50 [2] was < 100 nM and the GI50 (MOLM-13 cells) was 2.9 nM. It also gave a GI50 (MV4:11 cells) of 1.3 nM, a GI50 (GIST-T1 cells) of 2.3 nM and a GI50 (GIST430 cells) of 33 nM. For the same compound, the GI50 (GIST48 cells) was 20 nM, the GI50 (GIST882 cells) was 8 nM and the GI50 [3] was 95 nM. For the same compound, the GI50 [4] was 53 nM, the GI50 (BaF3/FLT3-D835Y cells) was 14 nM and the GI50 [5] was 2580 nM. The “Body Weight Loss” value (Kasumi-1 xenografts; 10 mg/kg oral) was “No”, the “Mortality (n = 6)” value (Kasumi-1 xenografts; 10 mg/kg oral) was 0/6 and the “Day 18 Tumor Size” value (Kasumi-1 xenografts; 10 mg/kg oral) was 700 mm^3. The “Body Weight Loss” value (Kasumi-1 xenografts; 50 mg/kg oral) was “No”, the “Mortality (n = 6)” value (Kasumi-1 xenografts; 50 mg/kg oral) was 0/6 and the “Day 18 Tumor Size” value (Kasumi-1 xenografts; 50 mg/kg oral) was 80 mm^3.
